Our source for the minimal effective concentration values is patent US10570129B2 (Zoetis Services LLC, priority 2015, dated 2020).

One test has as its system D. immitis microfilariae. The test can be described thus: Dirofilaria immitis, microfilariae (DiMF) in vitro motility assay. The settings on record: Dirofilaria immitis, 72 h, read-out: DiMF minimally effective dose (MEC). It is filed as cell-based.
The test system of the next test is Haemonchus contortus L3. The test can be described thus: microbe, parasite or virus in culture. It is filed as cell-based. The settings on record: Haemonchus contortus, 96 h, read-out: HcL3 Minimal Effective Concentration (MEC).

Turning to `O=C(NCc1ccnc(Cl)c1)n1c2c(c3c(OC(F)(F)F)cccc31)CN(C/C=C/c1ccc(Cl)cc1)CC2` [Example 354, (E)-2-(3-(4-chlorophenyl)allyl)-N-((2-chloropyridin-4-yl)methyl)-9-(trifluoromethoxy)-1,2,3,4-tetrahydro-5H-pyrido[4,3-b]indole-5-carboxamide], the minimal effective concentration with D. immitis microfilariae came to 18.2 µM; with Haemonchus contortus L3 it was 57.4 µM.
The like results for `O=C(NCc1ccnc(Cl)c1)n1c2c(c3cc(C(F)(F)F)ccc31)CN(C/C=C/c1ccc(F)cc1)CC2` [Example 334, (E)-N-((2-chloropyridin-4-yl)methyl)-2-(3-(4-fluorophenyl)allyl)-8-(trifluoromethyl)-1,2,3,4-tetrahydro-5H-pyrido[4,3-b]indole-5-carboxamide] were, in that order, 10 µM and 1 µM.
With `Cc1ccc2c3c(n(C(=O)NCc4ccnc(Cl)c4)c2c1)CCN(C/C=C/c1ccc(C(F)(F)F)cc1)C3` [Example 150, (E)-N-((2-chloropyridin-4-yl)methyl)-7-methyl-2-(3-(4-(trifluoromethyl)-phenyl)allyl)-1,2,3,4-tetrahydro-5H-pyrido[4,3-b]indole-5-carboxamide], the figures for the minimal effective concentration in the test with D. immitis microfilariae and with Haemonchus contortus L3 were 10 µM and 3.3 µM, respectively.
The corresponding values for `N#Cc1ccc(/C=C/CN2CCc3c(c4ccc(Cl)cc4n3C(=O)NCc3ccnc(Cl)c3)C2)cc1` [Example 212, (E)-7-chloro-N-((2-chloropyridin-4-yl)methyl)-2-(3-(4-cyanophenyl)allyl)-1,2,3,4-tetrahydro-5H-pyrido[4,3-b]indole-5-carboxamide] are over 100 µM and 1 µM.
Regarding `O=C(NCc1ccnc(Cl)c1)n1c2c(c3cc(Cl)c(OC(F)(F)F)cc31)CN(C/C=C/c1ccc(Cl)cc1)CC2` [Example 499, (E)-8-chloro-2-(3-(4-chlorophenyl)allyl)-N-((2-chloropyridin-4-yl)methyl)-7-(trifluoromethoxy)-1,2,3,4-tetrahydro-5H-pyrido[4,3-b]indole-5-carboxamide], the minimal effective concentration in the test on D. immitis microfilariae is over 100 µM; with Haemonchus contortus L3 it was 1.8 µM.
The like results for `O=C(NCc1ccnc(Cl)c1)n1c2c(c3cc(Cl)ccc31)CN(C/C=C/c1ccc(Cl)c(Cl)c1)CC2` [Example 243, (E)-8-chloro-N-((2-chloropyridin-4-yl)methyl)-2-(3-(3,4-dichlorophenyl)allyl)-1,2,3,4-tetrahydro-5H-pyrido[4,3-b]indole-5-carboxamide] were, in that order, 10 µM and 1.3 µM.
The corresponding values for `O=C(NCc1ccnc(Cl)c1)n1c2c(c3ccc(OC(F)(F)F)cc31)CN(Cc1cc3ccc(Cl)cc3cn1)CC2` [Example 365, 2-((7-chloroisoquinolin-3-yl)methyl)-N-((2-chloropyridin-4-yl)methyl)-7-(trifluoromethoxy)-1,2,3,4-tetrahydro-5H-pyrido[4,3-b]indole-5-carboxamide] are 4.4 µM and over 100 µM.
The like results for `O=C(NCc1ccnc(Cl)c1)n1c2c(c3c(OC(F)(F)F)cccc31)CN(C/C=C/c1ccc(C(F)(F)F)cn1)CC2` [Example 343, (E)-N-((2-chloropyridin-4-yl)methyl)-9-(trifluoromethoxy)-2-(3-(5-(trifluoromethyl)pyridin-2-yl)allyl)-1,2,3,4-tetrahydro-5H-pyrido[4,3-b]indole-5-carboxamide] were, in that order, 3.3 µM and 33 µM.
As for `O=C(NCc1ccnc(Cl)c1)n1c2c(c3cc(Cl)ccc31)CN(C/C=C/c1ccncc1)CC2` [Example 248, (E)-8-chloro-N-((2-chloropyridin-4-yl)methyl)-2-(3-(pyridin-4-yl)allyl)-1,2,3,4-tetrahydro-5H-pyrido[4,3-b]indole-5-carboxamide], the figures for the minimal effective concentration in the test with D. immitis microfilariae and in the test on Haemonchus contortus L3 were 0.5 µM and 0.4 µM, respectively.
